Source: US11903999B2, “Combination of AS1411 and SAPC-DOPS for the treatment of glioblastoma multiforme” (University of Cincinnati, priority 2017, dated 2024)

How the values were obtained:
[1] = system: non-GBM tumor cell lines; details: cited from earlier work
[2] = system: U87-MG cells; experiment: Methuosis-like vacuolization by microscopy; format: cell-based; details: 15 μM AS1411 for 72 hrs
Description: FIG. 5. A) AS1411 induces methuosis-like vacuolization in U87-MG Cells, untreated U87-MG cells; B) […] cells treated with 10 μM MIPP for 24 hrs; C) U87-MG cells treated with 15 μM AS1411 for 72 hrs. D) U87-MG cells treated with 15 μM AS1411 for 192 hrs. E) Quantification of number of cells with >5 vacuoles.
U87-MG cells were grown to approximately 50% confluency in standard flat bottom 6 well cell culture plates. The cells were then treated with either 10 μM MIPP (a compound previously shown to induce methuosis) or 15 μM AS1411 for 72 hrs. Photos were taken comparing the two treatment wells with untreated control cells, using a microscope with camera.

[3] = system: Caspase-3 in U87-MG cells; experiment: Caspase-3 levels as a measure of apoptosis (EnzCheck Caspase-3 Assay Kit); format: cell-based; details: 15 μM AS1411 for 72 hrs vs 100 μM TMZ for 48 hrs
Description: Caspase activity was measured with a […]. Caspase levels were normalized to total cellular protein with BCA protein assay. Error bars show mean +/−SD.
U87-MG cells were seeded onto standard 60 mm cell culture dishes at 50% confluency. After 24 hrs, 15 μM of AS1411 in DMEM and 100 μM of temozolomide (TMZ) in DMEM were added to each dish. Cells were harvested at 72 hrs and 48 hrs respectively and analyzed using the EnzCheck Caspase-3 Assay Kit from Molecular Probes utilizing the Z-DEVD-AMC substrate (incubated for 30 minutes). Fluorescence excitation/emission: 340/440 nm) was measured with a standard fluorometer.

[4] = system: U87-MG cells; details: cited from earlier work
[5] = system: U87-MG cells; experiment: Cell surface PS (Annexin V-FITC) and propidium iodide by flow cytometry; format: cell-based; details: 6 μM AS1411
Description: FIG. 3. […] Error bars show mean +/−SD with **p<0.02 by Student's t-test when compared to control (untreated) cells.
U87-MG cells were seeded onto standard 60 mm cell culture dishes at ˜50% confluency. After 24 hrs, 6 μM of AS1411 in DMEM was added to each dish at 24, 48, and 72 hour time points. Cells were then stained with Annexin V-FITC using a standard staining protocol and evaluated for surface PS levels using flow cytometry.

**Q.** For “5′-d(GGTGGTGGTGGTTGTGGTGGTGGTGG)-3′ [AS1411]”, which IC50 [1] is on record?
**A.** The IC50 was 1 µM.

**Q.** What about the “morphologic changes, vacuolization” value [2] of the same substance?
**A.** The value was “induces morphologic changes including vacuolization”.

**Q.** And the caspase activity [3]?
**A.** The caspase activity was “does not increase caspase activity as much as the apoptotic drug TMZ”.

**Q.** What about the IC50 [4] of the same substance?
**A.** Its IC50 is 10 µM.

**Q.** What about the “propidium iodide (PI) positive (dead) cells” value [5] of the same substance?
**A.** The value was “without increasing PI”.

**Q.** What about the “surface PS (Annexin V-FITC)” value ([5]; 24, 48, 72 hrs) of the same substance?
**A.** Its value is “increases surface PS”.
